Source: patent publication US20250057832A1, “USE OF A CLASS OF 1,4-DIHYDRO-NAPHTHYRIDINE DERIVATIVES IN TREATMENT OF TUMORS” (NEURODAWN PHARMACEUTICAL CO., LTD., priority 2021, published 2025)

Tested on: neural tumor cells and non-neural tumor systems
Test: Cell viability assay, summary over tumor cell lines (Example 2)
Type: cell-based
Settings: neural and non-neural tumor cells of Table 3, 48 hours; read-out: IC50, range over tumor cell lines
Description: U87MG, T98G, U251, SK-N-SH, A-172 and HepG2 cells were adherently cultured in MEM+10% FBS+1% P/S medium and passaged at 1:3; CT26.WT cells were adherently cultured in RPMI-1640+10% FBS+1% P/S medium and passaged at 1:3; CHO-K1 was cultured adherently in Ham's F-12K+10% FBS+[…] medium and passaged at 1:3.
The above various cells were resuscitated and stably passaged twice. When the cell density reached above 85%, the cells were digested with 0.05% trypsin-EDTA for three minutes, resuspended, plated in a 96-well plate at the corresponding density, and cultured for 24 hours. The cells were treated with drugs at final concentrations of the culture system of 0.41 μM, 1.23 μM, 3.7 μM, 11.1 μM, 33.3 μM, and 100 μM. After 48 hours of drug treatment, cell viability was determined using CellCounting-Lite™ 2.0 kit. The plate was added with reagents at 100 µL/well according to the CellCounting-Lite™ 2.0 kit instructions, and shaken for 10 minutes. The luminescence value (LUM) was read on a multi-function plate reader, and the relative viability of the cells was calculated.
Relative viability of tumor cells V (%)=(LUM-LUMbackground)/(LUMnormal control−LUMbackground)×100%. LUMbackground was the background reading of the complete culture medium well added with the detection reagent. The half inhibitory concentration (IC50) was calculated using GraphPad Prism 8.0.1 statistical software.

SMILES: CCOC(=O)C1=C(C)Nc2nc3c(c(N)c2C1c1ccccc1Cl)CC(C)(C)CC3 (stereo not shown) [Compound S2]
- IC50: 4.7 to 14.3 µM
